Data published in US11472811B2, “Pyrazolotriazolopyrimidine derivatives as A2A receptor antagonist” (BEIGENE, LTD., priority 2018, dated 2022).

These compounds were tested against human A2A receptor (A2AR) (Homo sapiens (Human), UniProt P29274) (assay: Luciferase reporter assay (HEK293-A2AR-luc2p/CRE/Hygro cells)). Conditions: 3 nM CGS21680, 5 h incubation.
Assay type: cell-based
Description: HEK293 cells were maintained in Dulbecco's modified Eagle's medium (DMEM, Gibco) supplemented with 10% fetal bovine serum (FBS, Thermo Scientific), 100 units/mL penicillin (Gibco), and 0.1 mg/mL streptomycin (Gibco) in a humidified 37° C. environment with 5% CO2. Plasmid encoding wild-type human A2A receptor (A2AR) (in pcDNA3.1) was synthesized by Genscript (Nanjing, China). Transfection of the plasmids was performed in 6-well plates with 4×10^5 cells using Lipofectamin 2000 (ThermoFisher Scientific) according to the instruction of the manufacturer. Cell clones that stably express A2AR were established and maintained in the same complete medium as the HEK293 cells in addition of G-418 (Gibico). Expression level of A2AR in each single cell clone was determined using immunoblotting and FACS method. HEK293-A2AR stable cells were then transfected with pGL4.29[luc2P/CRE/Hygro] (Promega) luciferase reporter plasmid for establishing the HEK293-A2AR-luc2p/CRE/Hygro stable cell line.
HEK293-A2AR-luc2p/CRE/Hygro cells were seeded at a density of 5,000 cells/well in DMEM with 1% FBS and 1 U/mL adenosine deaminase (ADA) (Sigma). After 18 h, the cells were treated with 3 nM CGS21680 plus a series dilution of A2AR antagonist, the compounds disclosed herein at the concentration of 0.1˜10000 nM, prepared in DMEM with 1% FBS. After 5 h incubation, the luciferase activity in cells were measured using the Bright-Glo Luciferase Assay System (Promega) according to manufacturer's instructions. The luminescence signal was measured using a PHERAstar FS plate reader (BMG Labtech). […] Maximal luminescence intensity was determined in the presence of 3 nM CGS21680 and was set as 100%. The IC50 value was calculated from a dose dependent inhibition curve across the range of compound concentrations.

Sequence of human A2A receptor (A2AR) (P29274 whole entry): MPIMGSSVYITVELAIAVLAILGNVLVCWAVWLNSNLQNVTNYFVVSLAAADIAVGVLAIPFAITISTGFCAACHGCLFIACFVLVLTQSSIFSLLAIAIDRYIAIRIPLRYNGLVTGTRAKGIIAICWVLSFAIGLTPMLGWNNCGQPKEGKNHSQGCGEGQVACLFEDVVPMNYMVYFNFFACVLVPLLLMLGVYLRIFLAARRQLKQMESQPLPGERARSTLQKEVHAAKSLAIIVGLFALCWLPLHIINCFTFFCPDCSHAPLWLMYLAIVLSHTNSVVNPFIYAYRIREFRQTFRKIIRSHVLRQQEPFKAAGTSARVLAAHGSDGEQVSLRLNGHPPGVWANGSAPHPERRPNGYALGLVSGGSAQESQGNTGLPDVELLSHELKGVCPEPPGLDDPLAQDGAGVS

Row | IC50 [nM] | Structure (SMILES)
1 | 22.5 | COCCOc1ccc(N2CCN(CCNC(=O)C(C)(c3ccccc3)n3ncc4c3nc(N)n3nc(-c5ccco5)nc43)CC2)cc1 (centres unmarked) [Example 44, 2-(5-amino-2-(furan-2-yl)-7H-pyrazolo[4,3-e][1,2,4]triazolo[1,5-c]pyrimidin-7-yl)-N-(2-(4-(4-(2-methoxyethoxy)phenyl)piperazin-1-yl)ethyl)-2-phenylpropanamide]
2 | 22.4 | CC(C(=O)NCCN1CCNCC1)(c1ccccc1)n1ncc2c1nc(N)n1nc(-c3ccco3)nc21 (centres unmarked) [Example 45, 2-(5-amino-2-(furan-2-yl)-7H-pyrazolo[4,3-e][1,2,4]triazolo[1,5-c]pyrimidin-7-yl)-2-phenyl-N-(2-(piperazin-1-yl)ethyl)propanamide]
3 | 10.9 | COCCOc1ccc(N2CCC(NC(=O)C(C)(c3ccccc3)n3ncc4c3nc(N)n3nc(-c5ccco5)nc43)CC2)cc1 (centres unmarked) [Example 46, 2-(5-amino-2-(furan-2-yl)-7H-pyrazolo[4,3-e][1,2,4]triazolo[1,5-c]pyrimidin-7-yl)-N-(1-(4-(2-methoxyethoxy)phenyl)piperidin-4-yl)-2-phenylpropanamide]
4 | 12.8 | CC(C(=O)N[C@H]1CCC[C@H]1O)(c1ccccc1)n1ncc2c1nc(N)n1nc(-c3ccco3)nc21 (stereo partly drawn) [Example 47, 2-(5-amino-2-(furan-2-yl)-7H-pyrazolo[4,3-e][1,2,4]triazolo[1,5-c]pyrimidin-7-yl)-N-((1S,2R)-2-hydroxycyclopentyl)-2-phenylpropanamide]
5 | 2.9 | CC(C(=O)N[C@@H]1CCC[C@@H]1O)(c1ccccc1)n1ncc2c1nc(N)n1nc(-c3ccco3)nc21 (stereo partly drawn) [Example 48, 2-(5-amino-2-(furan-2-yl)-7H-pyrazolo[4,3-e][1,2,4]triazolo[1,5-c]pyrimidin-7-yl)-N-((1R,2S)-2-hydroxycyclopentyl)-2-phenylpropanamide]
6 | 12.6 | C[C@@](C(=O)N[C@@H]1CCC[C@@H]1O)(c1ccccc1)n1ncc2c1nc(N)n1nc(-c3ccco3)nc21 [Example 48A, (S)-2-(5-amino-2-(furan-2-yl)-7H-pyrazolo[4,3-e][1,2,4]triazolo[1,5-c]pyrimidin-7-yl)-N-((1R,2S)-2-hydroxycyclopentyl)-2-phenylpropanamide]
7 | 3.7 | CC(C(=O)NCC1CCCO1)(c1ccccc1)n1ncc2c1nc(N)n1nc(-c3ccco3)nc21 (centres unmarked) [Example 49, 2-(5-amino-2-(furan-2-yl)-7H-pyrazolo[4,3-e][1,2,4]triazolo[1,5-c]pyrimidin-7-yl)-2-phenyl-N-((tetrahydrofuran-2-yl)methyl)propanamide]
8 | 5.3 | CC(C(=O)NC[C@H]1CCCO1)(c1ccccc1)n1ncc2c1nc(N)n1nc(-c3ccco3)nc21 (stereo partly drawn) [Example 50, 2-(5-amino-2-(furan-2-yl)-7H-pyrazolo[4,3-e][1,2,4]triazolo[1,5-c]pyrimidin-7-yl)-2-phenyl-N—(((R)-tetrahydrofuran-2-yl)methyl)propanamide]
9 | 2.7 | CC(C(=O)NC[C@@H]1CCCO1)(c1ccccc1)n1ncc2c1nc(N)n1nc(-c3ccco3)nc21 (stereo partly drawn) [Example 51, 2-(5-amino-2-(furan-2-yl)-7H-pyrazolo[4,3-e][1,2,4]triazolo[1,5-c]pyrimidin-7-yl)-2-phenyl-N—(((S)-tetrahydrofuran-2-yl)methyl)propanamide]
10 | 5 | C[C@](C(=O)N[C@H]1CC[C@H](O)CC1)(c1ccccc1)n1ncc2c1nc(N)n1nc(-c3ccco3)nc21 [Example 52B, (R)-2-(5-amino-2-(furan-2-yl)-7H-pyrazolo[4,3-e][1,2,4]triazolo[1,5-c]pyrimidin-7-yl)-N-((trans)-4-hydroxycyclohexyl)-2-phenylpropanamide]
11 | 12.5 | CC(C(=O)NC[C@@H]1CCOC1)(c1ccccc1)n1ncc2c1nc(N)n1nc(-c3ccco3)nc21 (stereo partly drawn) [Example 53, 2-(5-amino-2-(furan-2-yl)-7H-pyrazolo[4,3-e][1,2,4]triazolo[1,5-c]pyrimidin-7-yl)-2-phenyl-N—(((S)-tetrahydrofuran-3-yl)methyl)propanamide]
12 | 8.1 | CC(C(=O)NC[C@H]1CCOC1)(c1ccccc1)n1ncc2c1nc(N)n1nc(-c3ccco3)nc21 (stereo partly drawn) [Example 54, 2-(5-amino-2-(furan-2-yl)-7H-pyrazolo[4,3-e][1,2,4]triazolo[1,5-c]pyrimidin-7-yl)-2-phenyl-N—(((R)-tetrahydrofuran-3-yl)methyl)propanamide]
13 | 13.8 | CC(C(=O)NCCO)(c1ccccc1)n1ncc2c1nc(N)n1nc(-c3ccco3)nc21 (centres unmarked) [Example 55, 2-(5-amino-2-(furan-2-yl)-7H-pyrazolo[4,3-e][1,2,4]triazolo[1,5-c]pyrimidin-7-yl)-N-(2-hydroxyethyl)-2-phenylpropanamide]
14 | 10.9 | CC(C(=O)N[C@H]1CCCC[C@H]1O)(c1ccccc1)n1ncc2c1nc(N)n1nc(-c3ccco3)nc21 (stereo partly drawn) [Example 56, 2-(5-amino-2-(furan-2-yl)-7H-pyrazolo[4,3-e][1,2,4]triazolo[1,5-c]pyrimidin-7-yl)-N-((1S,2R)-2-hydroxycyclohexyl)-2-phenylpropanamide]
15 | 29 | CC(C(=O)N[C@H]1CCCC[C@@H]1O)(c1ccccc1)n1ncc2c1nc(N)n1nc(-c3ccco3)nc21 (stereo partly drawn) [Example 57, 2-(5-amino-2-(furan-2-yl)-7H-pyrazolo[4,3-e][1,2,4]triazolo[1,5-c]pyrimidin-7-yl)-N-((1S,2S)-2-hydroxycyclohexyl)-2-phenylpropanamide]
16 | 1.8 | CC(C(=O)N[C@@H]1CCCC[C@@H]1O)(c1ccccc1)n1ncc2c1nc(N)n1nc(-c3ccco3)nc21 (stereo partly drawn) [Example 58, 2-(5-amino-2-(furan-2-yl)-7H-pyrazolo[4,3-e][1,2,4]triazolo[1,5-c]pyrimidin-7-yl)-N-((1R,2S)-2-hydroxycyclohexyl)-2-phenylpropanamide]
17 | 14.2 | CC(C(=O)N[C@H]1CCCC[C@H]1O)(c1ccccc1)n1ncc2c1nc(N)n1nc(-c3ccco3)nc21 (stereo partly drawn) [Example 58A, 2-(5-amino-2-(furan-2-yl)-7H-pyrazolo[4,3-e][1,2,4]triazolo[1,5-c]pyrimidin-7-yl)-N-((1S,2R)-2-hydroxycyclohexyl)-2-phenylpropanamide]
18 | 1.3 | C[C@](C(=O)N[C@@H]1CCCC[C@@H]1O)(c1ccccc1)n1ncc2c1nc(N)n1nc(-c3ccco3)nc21 [Example 58B, (R)-2-(5-amino-2-(furan-2-yl)-7H-pyrazolo[4,3-e][1,2,4]triazolo[1,5-c]pyrimidin-7-yl)-N-((1R,2S)-2-hydroxycyclohexyl)-2-phenylpropanamide]
19 | 11.1 | CC(C(=O)N[C@H]1CCCOC1)(c1ccccc1)n1ncc2c1nc(N)n1nc(-c3ccco3)nc21 (stereo partly drawn) [Example 59, 2-(5-amino-2-(furan-2-yl)-7H-pyrazolo[4,3-e][1,2,4]triazolo[1,5-c]pyrimidin-7-yl)-2-phenyl-N—((S)-tetrahydro-2H-pyran-3-yl)propanamide]
20 | 8.2 | CC(C(=O)N[C@@H]1CCCOC1)(c1ccccc1)n1ncc2c1nc(N)n1nc(-c3ccco3)nc21 (stereo partly drawn) [Example 60, 2-(5-amino-2-(furan-2-yl)-7H-pyrazolo[4,3-e][1,2,4]triazolo[1,5-c]pyrimidin-7-yl)-2-phenyl-N—((R)-tetrahydro-2H-pyran-3-yl)propanamide]
21 | 12.4 | CC(C(=O)NCC1CCCOC1)(c1ccccc1)n1ncc2c1nc(N)n1nc(-c3ccco3)nc21 (centres unmarked) [Example 61, 2-(5-amino-2-(furan-2-yl)-7H-pyrazolo[4,3-e][1,2,4]triazolo[1,5-c]pyrimidin-7-yl)-2-phenyl-N-((tetrahydro-2H-pyran-3-yl)methyl)propanamide]
22 | 91.1 | CN(C)CCNC(=O)C(C)(c1ccccc1)n1ncc2c1nc(N)n1nc(-c3ccco3)nc21 (centres unmarked) [Example 62, 2-(5-amino-2-(furan-2-yl)-7H-pyrazolo[4,3-e][1,2,4]triazolo[1,5-c]pyrimidin-7-yl)-N-(2-(dimethylamino)ethyl)-2-phenylpropanamide]
23 | 4.3 | Cc1ccccc1C(C)(C(=O)NCC1(O)COC1)n1ncc2c1nc(N)n1nc(-c3ccco3)nc21 (centres unmarked) [Example 63, 2-(5-amino-2-(furan-2-yl)-7H-pyrazolo[4,3-e][1,2,4]triazolo[1,5-c]pyrimidin-7-yl)-N-((3-hydroxyoxetan-3-yl)methyl)-2-(o-tolyl)propanamide]
24 | 35.1 | CC(C(=O)Nc1cccnc1)(c1ccccc1)n1ncc2c1nc(N)n1nc(-c3ccco3)nc21 (centres unmarked) [Example 64, 2-(5-amino-2-(furan-2-yl)-7H-pyrazolo[4,3-e][1,2,4]triazolo[1,5-c]pyrimidin-7-yl)-2-phenyl-N-(pyridin-3-yl)propanamide]
25 | 25.5 | CC(C(=O)Nc1ccncc1)(c1ccccc1)n1ncc2c1nc(N)n1nc(-c3ccco3)nc21 (centres unmarked) [Example 65, 2-(5-amino-2-(furan-2-yl)-7H-pyrazolo[4,3-e][1,2,4]triazolo[1,5-c]pyrimidin-7-yl)-2-phenyl-N-(pyridin-4-yl)propanamide]
26 | 6.2 | CC(C(=O)NCc1ccccn1)(c1ccccc1)n1ncc2c1nc(N)n1nc(-c3ccco3)nc21 (centres unmarked) [Example 66, 2-(5-amino-2-(furan-2-yl)-7H-pyrazolo[4,3-e][1,2,4]triazolo[1,5-c]pyrimidin-7-yl)-2-phenyl-N-(pyridin-2-ylmethyl)propanamide]
